SMILES | melting point [°C]
CCOC(=O)Cc1cnn(C)c1O | 104 to 105
Cn1nc(C(=O)NCc2ccc(Cl)cc2)c(=O)c2cc(I)ccc21 | 194 to 195
CC(C)OC(=O)c1nc(Cl)c(Cl)[nH]1 | 168
CCCCCCCCOC(=O)CCCCCNC(=O)c1cc(OCc2ccccc2)ccc1OCc1ccccc1 | 48 to 50
CCC(CC)Nc1nc(N)nc(C(C)(C)F)n1 | 104 to 106
Cc1ccc(S(=O)(=O)N2CCC(c3cccc4c3CCCC(C(=O)O)=C4)CC2)cc1 | 255 to 257
CCN(CC)c1ccc(N(c2ccc(N(C)C)cc2)C2(c3ccc(N(C)C)cc3Cl)OC(=O)c3ccccc32)cc1 (centres undefined) | 67 to 84
CCn1cc(C(=O)O)c(=O)cc1Cl | 155 to 157
NS(=O)(=O)c1ccc(Cl)c(NC(=O)c2cnn3c(C(F)F)cc(-c4ccc(C(F)(F)F)cc4)nc23)c1 | 286
CN(Cc1ccccc1CC(=O)O)C(=O)OC(C)(C)C | 96 to 98
CCCC1=C(C#N)C(c2ccccc2Cl)c2c(n[nH]c2C(C)C)N1 (centres undefined) | > 270
CCC1N=C(c2ccccc2F)c2c(ccc(N=C=O)c2Cl)N(C)C1=O (centres undefined) | 243 to 244
N#CCc1cccc(C(=O)c2ccccc2)c1N | 138 to 139
O=C(O)c1ccc(NC(=O)c2ccccc2-c2ccccc2)cc1 | 246 to 249
COc1ccc2c(c1)c(CC(=O)O)c(C)n2-c1nc(SC)nc2ccccc12 | 175 to 178
CCCCCCCCCCCCCCCCc1ccc(S(=O)(=O)Cl)cc1 | 35 to 36
COCCN(C)c1cc2ncc(C#N)c(C)c2cc1OC | 90 to 96
CCC1(CO)C=NC(c2nn(Cc3ccccc3F)c3ccccc23)O1 (centres undefined) | 137 to 139
COC(=O)COc1cc2c(c3c1c(C(=O)C(N)=O)c(C)n3Cc1ccccc1)CCCC2 | 115 to 125
CC(C)NC(=O)C(C#N)=Cc1cc(O)c(O)c([N+](=O)[O-])c1 | 243 to 245
Cc1cc(-c2cc(CO)c(=O)n(CC(C)C)n2)ccc1F | 107 to 110
COc1cc(OC)c2c(=O)[nH]c(-c3ccc(OC)c(-c4ccc(C(=O)N(C)C)cc4C)n3)nc2c1 | 248 to 251
CCCCc1oc2ccc(-c3nc(C)no3)cc2c1C(=O)c1ccc(O)cc1 | 180 to 182

SMILES | melting point [°C]
CCN(CC)CC1CCCCN1CCNC(=O)N1c2ccccc2NC(=O)c2ccccc21 (centres undefined) | 123 to 125
O=C(c1cc(=O)c2cc3[nH]c(=O)oc3cc2[nH]1)N1CCC(Cc2ccccc2)CC1 | 215
O=c1[nH]cnc2ccc(C(F)(F)F)cc12 | 209 to 211
CC(C)(C)OC(=O)n1c(C(=O)O)cc2ccccc21 | 117
O=Cc1c(NC(Cc2ccccc2)C(=O)O)ncnc1-c1ccc(OCc2ccccc2)cc1 (centres undefined) | > 300
N#Cc1ccc(-c2ccc(O)c(-c3nc4cc(C#N)ccc4[nH]3)c2)cc1 | > 340
Cc1ccnc(-n2sc3ccccc3c2=O)c1 | 195 to 196
CCOc1c(C=NOCc2ccccc2)c(=O)n(C)c(=O)n1C | 93 to 94
CN(C)Cc1ccc(OCC(=O)N2CCN(c3ccc(N4C[C@H](CNC(=S)C5CC5)OC4=O)cc3F)CC2)cc1 | 169 to 170
[N-]=[N+]=NC[C@H]1CN(c2cccc(F)c2)C(=O)O1 | 81 to 82
CC(C)(C)c1cc(Cn2cncn2)cc(C(C)(C)C)c1O | < 30
Clc1ccc(Nc2nc3ccccc3c3[nH]c(C4CCC4)nc23)cc1Cl | 131 to 134
O=C(CN1CCN(CCSc2nc3cccc(C(F)(F)F)c3o2)CC1)Nc1c(C(F)(F)F)cc(OCc2ccccc2)cc1C(F)(F)F | 156 to 158
COc1ccccc1C(C)C(Sc1ccc(C(=O)O)cc1)n1ccnc1 (centres undefined) | 118 to 124
C#CC1(OCc2cc(F)ccc2F)CCN(C(C)=O)CC1 | 90 to 93
C[C@H](O)[C@@H](COc1ccc(Cl)c(Cl)c1)n1cnc(C(N)=O)c1 | 115 to 121
COc1ccc(C(=O)CC(=O)C(F)(F)C(F)(F)F)cc1OC | 72
Cc1c(F)c(N)cc([N+](=O)[O-])c1F | 106 to 107
COc1cc2c(c3c1OC(C)(C)C3)C(c1ccc(=O)n(-c3cc(C)ccn3)c1)=NC(C)(C)C2 | 161 to 162
COC(=O)Cc1nn(Cc2ccc(Br)cc2F)c(=O)c2ccccc12 | 151 to 153
CCCCN1C(=O)CC(=O)N(c2ccccc2)c2cc(Cl)ccc21 | 159 to 161
Cc1ccc(NC(=O)c2ccc(CN3C[C@@H](C)N[C@@H](C)C3)c(Br)c2)cc1Nc1nccc(-c2cccnc2)n1 | 204 to 205
N#Cc1ccc(C(=O)c2cc(C(F)(F)F)ccc2O)cc1 | 118

SMILES | melting point [°C]
CC(=O)Nc1c(C(=O)c2ccccc2)[nH]c2cccc(Cl)c12 | 221 to 222
COc1ccc(C[C@@H](NC(=O)CCCc2ccccc2)[C@@H](O)c2ccc(F)cc2)cc1 (racemic) | 130 to 131
O=C(O)CCc1oc(N2CCN(c3ccccc3)CC2)nc1-c1ccc(Cl)cc1 | 177 to 178
CC(=O)c1ccc2nc3ccc(C(=O)O)cc3c(=O)n2c1 | 305 to 309
C=CCOC(=O)N=C(OCC)N1Cc2ccccc2-c2ccccc2C1 | 76 to 77.5
O=C(O)c1cc(OCc2ccccc2)c(C(=O)c2ccc(Cl)cc2)c([N+](=O)[O-])c1 | 137 to 138
O=C(O)Cc1ccc(I)c(OCC(F)(F)F)c1 | 153 to 154
Cc1ccccc1CC(C(=O)Nc1cnc(Br)cn1)c1ccc(S(C)(=O)=O)cc1 (centres undefined) | 194 to 195
OC1(C(c2ccccc2)c2ccccc2)CSC2=NCCCCN21 (centres undefined) | 123 to 125
CNCC1(C)Cc2c(C)c(N3CCN(c4ccc(OC)cc4)CC3)c(C)c(C)c2O1 (centres undefined) | 107 to 113
COC(=O)/C(=C/C=C/c1cc2ccccc2n1C)OC | 93 to 94
OC1CCc2ccc(Oc3c(F)cc(C(F)(F)F)cc3Cl)cc21 (racemic) | 101 to 102
COC(=O)c1sccc1OCC(O)CN1CCC(O)(c2ccccc2)CC1 (centres undefined) | 150 to 152
CC(C)=CCn1ncc(-c2ccc(S(N)(=O)=O)c(F)c2)c(-c2ccc(F)cc2)c1=O | 134 to 136
CCOCCSC(F)(F)C(O)(Cn1cncn1)c1ccc(F)cc1F (centres undefined) | 61 to 63
CC(C)(C)OC(=O)N(CC(=O)OCN1C(=O)CCC(N2C(=O)c3ccccc3C2=O)C1=O)C(=O)CN (centres undefined) | 178 to 181
C=CC(=O)OCC(CCCCCCCCCCCOc1ccc(-c2cccc(F)c2F)cc1)COC(=O)C=C | 33.4 to 34.4
Cc1csc(-c2cc3cccc(NS(=O)(=O)c4cccs4)c3[nH]2)n1 | 181 to 183
O=C(O)CN1CC2(CCCCC2)CC1=O | 122 to 124
CC(C)C1(C)C(=O)N=C2c3ncc(C4OCCO4)cc3C(=O)N21 (centres undefined) | 146 to 148
C[C@H]1CN(C(=O)OC(C)(C)C)CCCN1S(=O)(=O)c1ccccc1[N+](=O)[O-] | 113 to 114
C[Si]1(C)CCCCCCCCCC[Si](C)(C)O[Si](C)(C)CCCCCCCCCC[Si](C)(C)O1 | 90
COc1cccc2c1-c1c(OC(C)C)cccc1C2=O | 118 to 120
